Test system: NF-κB p65
Experiment: Co-immunoprecipitation of annexin 1 with p65, BxPC-3 cells
Assay type: cell-based, human
Conditions: 3 h, NO-ASA 20 μM or Dex 4 μM
Procedure: The gel shift assays were carried out according to the manufacturer's protocol (Panomics). Nuclear proteins (10 μg) from each sample were mixed with 10 ng biotinylated p65 double-stranded oligonucleotide probes (5′-[…]-3′ and its complement) (SEQ ID NO:9) in the presence of 1 μg Poly(I/C) DNA. The mixture was incubated at room temperature for 30 min. The binding complex was then resolved using a 6% polyacrylamide/glycerol gel in 0.5% Tris-borate-EDTA, transferred onto a nylon membrane, and fixed on the membrane by UV cross-linking The biotin-labeled probe was detected with streptavidin-horseradish peroxidase. Co-immunoprecipitation was performed as follows: about 500 μg of cell extracts were incubated overnight with 5 μg of agarose-conjugated anti-p65 (Santa Cruz Biotechnology) or anti-annexin 1 antibody (Santa Cruz, Calif.). The precipitate was washed five times with washing buffer (Santa Cruz Biotechnology), dissolved in 2× Laemmli buffer, boiled, and separated by SDS-PAGE and detected by Western blot analysis using ECL™ (Amersham Biosciences) as described above. Control experiments were performed by using rabbit IgG for p65 and mouse IgG2b for annexin 1, respectively (Santa Cruz Biotechnology).

Substance: nitric oxide-donating aspirin [NO-ASA]
- co-immunoprecipitation of annexin 1 with p65: co-immunoprecipitated with p65
